Literature values as cited in patent US8404715B2, “Methods and compositions using racemic, (R)-, and (S)-fexofenadine in combination with leukotriene inhibitors” (Sunovion Pharmaceuticals Inc., priority 1998, dated 2013).
Like-named read-outs stand apart in the source and are kept apart here.

Columns and labels:
[1] = tested on: leukotriene-dependent smooth muscle contractions; settings: in vitro, human airways
[2] = 373 patients
[3] = in some patients
[4] = tested on: LTB4 formation; settings: ex vivo, several species
[5] = tested on: leukotriene-dependent smooth muscle contractions; settings: in vitro, guinea pig airways
[6] = tested on: leukotriene (LTH4, LTC4, LTD4, and LTE4) formation; settings: in vitro
[7] = tested on: nasal response to allergen challenge
[8] = tested on: LTD4 (leukotriene D4); settings: guinea pigs
[9] = in vivo
[10] = tested on: contractile activity of three leukotrienes; settings: humans
[11] = tested on: LTD4; settings: in vivo
[12] = in some patients; remark: listed apart in the source
[13] = tested on: contractile activity of three leukotrienes; settings: laboratory animals
[14] = tested on: LTD4; settings: in vivo; remark: listed apart in the source

Question: Which results are given for `CC(c1cc2ccccc2s1)N(O)C(N)=O` (racemic) [zileuton, (±)-1-(1-Benso[b]thien-2-ylethyl)-1-hydroxyurea]?
Answer: leukotriene-dependent smooth muscle contractions [1]: inhibits; efficacy ([2]; 400 mg): failed to do so; efficacy ([2]; 600 mg four times daily): required to provide efficacy; adverse effects reported [3]: headache, pain, asthenia, dyspepsia, nausea, and myalgia; LTB4 formation [4]: inhibitor; leukotriene-dependent smooth muscle contractions [5]: inhibits; leukotriene (LTH4, LTC4, LTD4, and LTE4) formation [6]: inhibit

Question: Which results are given for `CC(C)(C)c1ccc(C(O)CCCN2CCC(C(O)(c3ccccc3)c3ccccc3)CC2)cc1` (stereo not shown) [Terfenadine]?
Answer: early nasal response to allergen challenge ([7]; in vivo): partially inhibits; influx of eosinophils into nasal secretions ([7]; in vivo): without affecting; subsequent reactivity to a challenge with methacholine ([7]; in vivo): partially inhibits; levels of tryptase, prostaglandin D2 and leukotriene C4 ([7]; relative to the placebo, differences did not achieve statistical significance): tended to decrease; increase in airway resistance caused by LTD4 [8]: suppressed; absorption [9]: well absorbed; metabolism [9]: extensively metabolized

Question: Which “contractile activity of three leukotrienes in conducting airway smooth muscle” value [10] does the source give for `COc1cc(C(=O)NS(=O)(=O)c2ccccc2C)ccc1Cc1cn(C)c2ccc(NC(=O)OC3CCCC3)cc12` [zafirlukast, 4-(5-cyclopentyloxy-carbonylamino-1-methyl-indol-8-ylmethyl)-3-methoxy-N-o-tolylsulfonylbenzamide] here?
Answer: The value was “antagonized”.

Question: What about the “inhaled LTD4-induced influx of eosinophils into animal lungs” value [11] of the same molecule?
Answer: Its value is “inhibited”.

Question: What about the adverse effects reported [12] of the same molecule?
Answer: Its adverse effects reported is “headache, infection, nausea, diarrhea, pain, asthenia, abdominal pain, dizziness, myalgia, fever, vomiting, SGPT elevation, and dyspepsia”.

Question: And the “contractile activity of three leukotrienes in conducting airway smooth muscle” value [13]?
Answer: Its value is “antagonized”.

Question: What about the “intradermal LTD4-induced increases in cutaneous vascular permeability” value [14] of the same molecule?
Answer: The value was “prevented”.
